From patent publication US5663180A, “Substituted cyclopentenes for the treatment of inflammation” (G.D. Searle & Co., priority 1994, dated 1997)
Where two headings read alike, the source gives them in different places.

Assays:
[1] = test system: hyperalgesic foot withdrawal (rat carrageenan); test: Rat Carrageenan-induced Analgesia Test; assay type: in vivo, Male Sprague-Dawley rats
Procedure: Male Sprague-Dawley rats were treated as previously described for the Carrageenan Foot Pad Edema test. […] After an initial twenty minute period, thermal stimulation was begun on either the injected foot or on the contralateral uninjected foot. A photoelectric cell turned off the lamp and timer when light was interrupted by paw withdrawal. The time until the rat withdraws its foot was then measured. The withdrawal latency in seconds was determined for the control and drug-treated groups, and percent inhibition of the hyperalgesic foot withdrawal determined.

RAT PAW EDEMA = test: Rat Carrageenan Foot Pad Edema Test; details: po, 3 h, read-out: RAT PAW EDEMA % Inhibition
HUMAN COX I = molecular target: T1, HUMAN COX I (Homo sapiens, UniProt P23219); test: COX I activity in vitro (PGE2 formed, ELISA, recombinant enzyme); assay type: biochemical; details: read-out: HUMAN COX I ID50
T1 construct: A 2.0 kb fragment containing the coding region of either human or murine COX-I or human or murine COX-II; made in house; host or cells: SF9 insect cells (recombinant baculovirus, pVL1393); CHAPS-solubilized
T1 sequence (P23219 24-599): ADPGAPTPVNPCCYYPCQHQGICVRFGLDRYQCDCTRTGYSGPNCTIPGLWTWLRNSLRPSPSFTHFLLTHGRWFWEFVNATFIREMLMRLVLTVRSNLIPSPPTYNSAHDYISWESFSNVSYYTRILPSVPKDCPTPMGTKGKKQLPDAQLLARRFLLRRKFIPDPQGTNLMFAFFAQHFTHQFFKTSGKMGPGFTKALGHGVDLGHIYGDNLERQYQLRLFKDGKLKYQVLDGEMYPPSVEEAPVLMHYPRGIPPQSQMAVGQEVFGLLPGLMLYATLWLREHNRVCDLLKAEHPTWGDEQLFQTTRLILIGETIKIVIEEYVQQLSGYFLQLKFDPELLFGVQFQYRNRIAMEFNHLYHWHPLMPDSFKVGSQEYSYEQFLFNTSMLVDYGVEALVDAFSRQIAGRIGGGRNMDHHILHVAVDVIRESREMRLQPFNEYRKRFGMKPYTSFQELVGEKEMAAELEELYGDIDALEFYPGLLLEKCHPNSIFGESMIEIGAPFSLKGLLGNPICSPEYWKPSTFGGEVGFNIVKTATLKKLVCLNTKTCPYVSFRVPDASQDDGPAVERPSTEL

HUMAN COX II = molecular target: T2, HUMAN COX II (Homo sapiens, UniProt P35354); test: COX II activity in vitro (PGE2 formed, ELISA, recombinant enzyme); assay type: biochemical; details: arachidonic acid 10 μM, 10-20 min pre-incubation, read-out: HUMAN COX II ID50
T2 construct: A 2.0 kb fragment containing the coding region of either human or murine COX-I or human or murine COX-II; made in house; host or cells: SF9 insect cells (recombinant baculovirus, pVL1393); CHAPS-solubilized
T2 sequence (P35354 18-604): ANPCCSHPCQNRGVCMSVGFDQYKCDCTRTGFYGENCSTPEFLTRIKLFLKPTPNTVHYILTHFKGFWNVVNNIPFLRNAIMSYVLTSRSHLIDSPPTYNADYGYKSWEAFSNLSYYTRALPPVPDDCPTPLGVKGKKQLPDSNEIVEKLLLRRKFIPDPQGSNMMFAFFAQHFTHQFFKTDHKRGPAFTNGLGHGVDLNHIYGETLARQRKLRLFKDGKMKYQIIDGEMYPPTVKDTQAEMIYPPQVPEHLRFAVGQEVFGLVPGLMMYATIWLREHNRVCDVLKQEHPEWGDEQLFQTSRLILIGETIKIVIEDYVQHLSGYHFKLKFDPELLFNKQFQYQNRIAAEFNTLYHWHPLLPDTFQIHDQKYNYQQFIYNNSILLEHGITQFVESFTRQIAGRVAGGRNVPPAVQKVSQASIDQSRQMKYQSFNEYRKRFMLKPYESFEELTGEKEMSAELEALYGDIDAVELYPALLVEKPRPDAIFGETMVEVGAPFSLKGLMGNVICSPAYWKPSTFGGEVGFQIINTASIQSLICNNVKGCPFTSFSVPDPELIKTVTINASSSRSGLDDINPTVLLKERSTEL
Procedure: Evaluation of COX I and COX II activity in vitro
The COX II inhibition activity of the compounds of this invention illustrated in the Examples was determined by the following methods. a. Preparation of recombinant COX baculoviruses
Recombinant baculoviruses were isolated by transfecting 4 μg of baculovirus transfer vector DNA into SF9 insect cells (2x10e8) along with 200 ng of linearized baculovirus plasmid DNA by the calcium phosphate method.
Assay for COX I and COX II activity

COX II enzyme = details: literature report; cited from earlier work
[2] = po, 3 h, read-out: ANALGESIA % Inhibition
[3] = recombinant human COX I, arachidonic acid 10 μM, 10-20 min pre-incubation

CSc1ccc(C2=C(c3ccc(S(C)(=O)=O)cc3)CCC2)cc1 [Example 11, 1-[2-(4-Methylthiophenyl)cyclopenten-1-yl]-4-(methylsulfonyl)benzene]
inhibition in vivo at 20 mg/kg [1, 2]: 39%

CS(=O)(=O)c1ccc(C2=C(c3ccc(C(F)(F)F)cc3)CCC2)cc1 [Example 6, 1-[2-(4-Trifluoromethylphenyl)cyclopenten-1-yl]-4-(methylsulfonyl)benzene]
inhibition in vivo at 20 mg/kg [1, 2]: 29% | inhibition in vivo at 10 mg/kg (RAT PAW EDEMA): 39%

CC1(C)CC(c2ccc(F)cc2)=C(c2ccc(S(C)(=O)=O)cc2)C1 [Example 12, 1-[2-(4-Fluorophenyl)-4,4-dimethylcyclopenten-1-yl]-4-(methylsulfonyl)benzene]
inhibition in vivo at 20 mg/kg (RAT PAW EDEMA): 45% | IC50 (HUMAN COX I; recombinant cox-i): 18.3 µM

O=S(=O)(CF)c1ccc(C2=C(c3ccc(F)cc3)CCC2)cc1 [Example 37, 1-[2-(4-Fluorophenyl)cyclopenten-1-yl]-4-(fluoromethylsulfonyl)benzene]
IC50 (HUMAN COX II): < 0.1 µM | IC50 (HUMAN COX I; [3]): > 100 µM

CC1(C)CC(c2ccc(Cl)cc2)=C(c2ccc(S(C)(=O)=O)cc2)C1 [Example 14, 1-[2-(4-Chlorophenyl)-4,4-dimethylcyclopenten-1-yl]-4-(methylsulfonyl)benzene]
inhibition in vivo at 30 mg/kg (RAT PAW EDEMA): 31% | IC50 (HUMAN COX I; recombinant cox-i): 1.6 µM

CS(=O)(=O)c1ccc(C2=C(c3ccc4c(c3)OCO4)CCC2)cc1 [Example 35, 5-[2-[4-(Methylsulfonyl)phenyl]cyclopenten-1-yl]-1,3-benzodioxole]
inhibition in vivo at 30 mg/kg (RAT PAW EDEMA): 6%

Cc1ccc(C2=C(c3ccc(S(C)(=O)=O)cc3)CCC2)cc1 [Example 5, 1-[2-(4-Methylphenyl)cyclopenten-1-yl]-4-(methylsulfonyl)benzene]
inhibition in vivo at 10 mg/kg (RAT PAW EDEMA): 16%

Cc1cc(F)ccc1C1=C(c2ccc(S(C)(=O)=O)cc2)CCC1 [Example 2, 1-[2-(4-Fluoro-2-methylphenyl)cyclopenten-1-yl]-4-(methylsulfonyl)benzene]
inhibition in vivo at 10 mg/kg (RAT PAW EDEMA): 39%

NS(=O)(=O)c1ccc(C2=C(c3ccc(F)cc3)CCC2)cc1 [Example 20, 4-[2-(4-Fluorophenyl)cyclopenten-1-yl]benzenesulfonamide]
inhibition in vivo at 30 mg/kg [1, 2]: 44% | inhibition in vivo at 10 mg/kg (RAT PAW EDEMA): 26% | IC50 (HUMAN COX I; recombinant cox-i): 4.2 µM

NS(=O)(=O)c1ccc(C2=C(c3ccc(F)c(Cl)c3)CCC2)cc1 [Example 34, 4-[2-(3-Chloro-4-fluorophenyl)cyclopenten-1-yl]benzenesulfonamide]
inhibition in vivo at 30 mg/kg [1, 2]: 46% | inhibition in vivo at 10 mg/kg (RAT PAW EDEMA): 37% | IC50 (HUMAN COX I; [3]): 2.1 µM

NS(=O)(=O)c1ccc(C2=C(c3ccc(Cl)cc3)CCC2)cc1 [Example 21, 4-[2-(4-Chlorophenyl)cyclopenten-1-yl]benzenesulfonamide]
IC50 (HUMAN COX I; recombinant cox-i): 1.3 µM

CC1(C)CC(c2ccc(F)cc2)=C(c2ccc(S(N)(=O)=O)cc2)C1 [Example 13, 4-[2-(4-Fluorophenyl)-4,4-dimethylcyclopenten-1-yl]benzenesulfonamide]
inhibition in vivo at 30 mg/kg ([1]; read-out: ANALGESIA % Inhibition, Assay performed at 30 mg/kg body weight (footnote 2), oral, 3 hours after carrageenan, read-out: […] % Inhibition): 14% | inhibition in vivo at 30 mg/kg (RAT PAW EDEMA): 34% | IC50 (HUMAN COX I; [3]): 0.5 µM

NS(=O)(=O)c1ccc(C2=C(c3cccc(F)c3F)CCC2)cc1 [Example 26, 4-[2-(2,3-Difluorophenyl)cyclopenten-1-yl]benzenesulfonamide]
IC50 (HUMAN COX I; [3]): 3.6 µM

CS(=O)(=O)c1ccc(C2=C(c3ccc(Cl)cc3)CCC2)cc1 [Example 3, 1-[2-(4-Chlorophenyl)cyclopenten-1-yl]-4-(methylsulfonyl)benzene]
inhibition in vivo at 20 mg/kg [1, 2]: 41% | inhibition in vivo at 10 mg/kg (RAT PAW EDEMA): 33%

NS(=O)(=O)c1ccc(C2=C(c3ccc(Cl)c(Cl)c3)CCC2)cc1 [Example 28, 4-[2-(3,4-Dichlorophenyl)cyclopenten-1-yl]benzenesulfonamide]
inhibition in vivo at 30 mg/kg [1, 2]: 26% | inhibition in vivo at 10 mg/kg (RAT PAW EDEMA): 10%

CS(=O)(=O)c1ccc(C2=C(c3ccc(F)cc3)CCC2)cc1 [Example 1, 1-[2-(4-Fluorophenyl)cyclopenten-1-yl]-4-(methylsulfonyl)benzene]
inhibition in vivo at 20 mg/kg [1, 2]: 66% | inhibition in vivo at 10 mg/kg (RAT PAW EDEMA): 32%

COc1ccc(C2=C(c3ccc(S(N)(=O)=O)cc3)CCC2)cc1F [Example 30, 4-[2-(3-Fluoro-4-methoxyphenyl)cyclopenten-1-yl]benzenesulfonamide]
inhibition in vivo at 30 mg/kg (RAT PAW EDEMA): 47% | IC50 (HUMAN COX I; recombinant cox-i): 8.1 µM

CS(=O)(=O)c1ccc(C2=C(c3ccc(Cl)cc3Cl)CCC2)cc1 [Example 4, 1-[2-(2,4-Dichlorophenyl)cyclopenten-1-yl]-4-(methylsulfonyl)benzene]
inhibition in vivo at 10 mg/kg (RAT PAW EDEMA): 25%

COc1ccc(C2=C(c3ccc(S(C)(=O)=O)cc3)CCC2)cc1 [Example 23, 1-[2-(4-Methoxyphenyl)cyclopenten-1-yl]-4-(methylsulfonyl)benzene]
inhibition in vivo at 30 mg/kg [1, 2]: 15% | inhibition in vivo at 10 mg/kg (RAT PAW EDEMA): 22% | IC50 (HUMAN COX I; recombinant cox-i): 9.9 µM

CS(=O)(=O)c1ccc(C2=C(c3cccc(F)c3F)CCC2)cc1 [Example 25, 1-[2-(2,3-Difluorophenyl)cyclopenten-1-yl]-4-(methylsulfonyl)benzene]
IC50 (HUMAN COX II): < 0.1 µM | IC50 (HUMAN COX I; [3]): > 100 µM

CC1(C)CC(c2ccc(Cl)cc2)=C(c2ccc(S(N)(=O)=O)cc2)C1 [Example 15, 4-[2-(4-Chlorophenyl)-4,4-dimethylcyclopenten-1-yl]benzenesulfonamide]
IC50 (HUMAN COX II): < 0.1 µM | inhibition in vivo at 30 mg/kg (RAT PAW EDEMA): 41%

COc1ccc2cc(CC(=O)O)ccc2c1 [6-methoxy-2-napthylacetic acid]
inhibition of the COX II enzyme (COX II enzyme): selectively inhibit the COX II enzyme

CCC1(CC)CC(c2ccc(F)cc2)=C(c2ccc(S(N)(=O)=O)cc2)C1 [Example 19, 4-[2-(4-Fluorophenyl)-4,4-diethylcyclopenten-1-yl]benzenesulfonamide]
IC50 (HUMAN COX II): 3.9 µM | IC50 (HUMAN COX I; [3]): 10 µM

COc1ccc(C2=C(c3ccc(S(N)(=O)=O)cc3)CCC2)cc1Cl [Example 32, 4-[2-(3-Chloro-4-methoxyphenyl)cyclopenten-1-yl]benzenesulfonamide]
inhibition in vivo at 30 mg/kg [1, 2]: 17% | inhibition in vivo at 10 mg/kg (RAT PAW EDEMA): 13%

Cc1ccc(C2=C(c3ccc(S(C)(=O)=O)cc3)CCC2)cn1 [Example 36]
inhibition in vivo at 30 mg/kg (RAT PAW EDEMA): 33% | IC50 (HUMAN COX I; [3]): > 100 µM

CS(=O)(=O)Nc1ccc([N+](=O)[O-])cc1OC1CCCCC1 [N-(2-cyclohexyloxy-4-nitrophenyl)methanesulfonamide]
inhibition of the COX II enzyme (COX II enzyme): inhibits the COX II enzyme
